Experimental data published in the supplement of paper PMC11061612.

Key:
Assay in all cases: Bliss excess, mean over the matrix (fraction); higher = more synergy
[1] = system: OE33 (Esophageal Adenocarcinoma)
Procedure, shortened: (§1)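 Cell lines in DMEM/F12 or RPMI with 10% FBS were plated in 1536-well plates, held 24 hours at 37°C, 5% CO2, then given two-drug dose matrices for 72 hours (DMSO typically 0.2%). Viability was read by CellTiter-Glo 2.0 luminescence and scaled as inhibition from 0 (vehicle wells) to 1 (blank wells). Combination Emax is the second-highest inhibition in the matrix; Bliss excess is observed combination effect minus expected EA + EB − EA·EB, EA and EB being single-agent effects.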

[2] = system: SK-LU-1 (Lung Adenocarcinoma)
Procedure, shortened: as §1

[3] = system: HCC1500 (Breast Carcinoma)
Procedure, shortened: as §1

[4] = system: MOG-G-UVW (Low Grade Glioma)
Procedure, shortened: as §1

[5] = system: MDA-MB-453 (Breast Carcinoma)
Procedure, shortened: as §1

[6] = system: DU-145 (Prostate Carcinoma)
Procedure, shortened: as §1

[7] = system: EJM (Plasma Cell Myeloma)
Procedure, shortened: as §1

[8] = system: Mo-T (Other Blood Carcinomas)
Procedure, shortened: as §1

[9] = system: A4-Fuk (B-Lymphoblastic Leukemia)
Procedure, shortened: as §1

[10] = system: NCI-H522 (Lung Adenocarcinoma)
Procedure, shortened: as §1

SK-N-AS (Neuroblastoma) = system: SK-N-AS (Neuroblastoma)
Procedure, shortened: as §1

[11] = system: SKN (Other Solid Carcinomas)
Procedure, shortened: as §1

[12] = system: NCI-H2122 (Lung Adenocarcinoma)
Procedure, shortened: as §1

EW-1 (Ewing's Sarcoma) = system: EW-1 (Ewing's Sarcoma)
Procedure, shortened: as §1

[13] = system: HCC2998 (Colorectal Carcinoma)
Procedure, shortened: as §1

[14] = system: ALL-SIL (T-Lymphoblastic Leukemia)
Procedure, shortened: as §1

[15] = system: Ca-Ski (Cervical Carcinoma)
Procedure, shortened: as §1

[16] = system: SW872 (Other Solid Carcinomas)
Procedure, shortened: as §1

[17] = system: KGN (Other Solid Carcinomas)
Procedure, shortened: as §1

COLO-679 (Melanoma) = system: COLO-679 (Melanoma)
Procedure, shortened: as §1

Row | Structure (SMILES) | Bliss excess [1] | Bliss excess [2] | Bliss excess [3] | Bliss excess [4] | Bliss excess [5] | Bliss excess [6] | Bliss excess [7] | Bliss excess [8] | Bliss excess [9] | Bliss excess [10] | Bliss excess (SK-N-AS (Neuroblastoma)) | Bliss excess [11] | Bliss excess [12] | Bliss excess (EW-1 (Ewing's Sarcoma)) | Bliss excess [13] | Bliss excess [14] | Bliss excess [15] | Bliss excess [16] | Bliss excess [17] | Bliss excess (COLO-679 (Melanoma))
1 | CS(=O)(=O)CCNCc1ccc(-c2ccc3ncnc(Nc4ccc(OCc5cccc(F)c5)c(Cl)c4)c3c2)o1 [Lapatinib] + C[C@@H](Oc1cc(-c2cnn(C3CCNCC3)c2)cnc1N)c1c(Cl)ccc(F)c1Cl [Crizotinib] (first compound max 10 µM, 7x7, partner max 10 µM) | 0.151 | -0.0582 | 0.0412 | 0.0013 | 0.0232 | -0.0242 | -0.0001 | -0.0658 | -0.0407 | -0.0362 | -0.0676 | -0.0289 | -0.0181 | -0.0239 | -0.044 | 0.0033 | -0.042 | -0.0069 | -0.0702 | -0.066
2 | COc1nnc2ccc(N3CCC(c4ccc(OCCN5CCN(C)C(=O)[C@H]5C)cc4)CC3)nn12 [AZD5153] + C=CCn1c(=O)c2cnc(Nc3ccc(N4CCN(C)CC4)cc3)nc2n1-c1cccc(C(C)(C)O)n1 [AZD1775] (first compound max 1 µM, partner max 1 µM) | -0.0386 | -0.0461 | 0.0305 | -0.0518 | -0.0243 | -0.0286 | 0.0229 | -0.0532 | -0.109 | -0.0617 | -0.056 | -0.0027 | -0.0432 | -0.0484 | -0.0083 | -0.0289 | 0.0125 | -0.0374 | -0.12 | -0.042
3 | Cn1cnc2c(F)c(Nc3ccc(Br)cc3Cl)c(C(=O)NOCCO)cc21 [Selumetinib] + CCN(CCO)CCCOc1ccc2c(Nc3cc(CC(=O)Nc4cccc(F)c4)[nH]n3)ncnc2c1 [AZD2811] (first compound max 10 µM, 7x7, partner max 1 µM) | -0.0246 | -0.098 | -0.0123 | 0.0279 | -0.026 | -0.0077 | 0.0145 | -0.0328 | 0.176 | -0.0359 | -0.0108 | -0.068 | -0.0258 | 0.0332 | -0.019 | -0.0031 | 0.0553 | -0.01 | -0.0586 | -0.0381
4 | C=CCn1c(=O)c2cnc(Nc3ccc(N4CCN(C)CC4)cc3)nc2n1-c1cccc(C(C)(C)O)n1 [AZD1775] + O=C(c1cc(Cc2n[nH]c(=O)c3ccccc23)ccc1F)N1CCN(C(=O)C2CC2)CC1 [Olaparib] (first compound max 1 µM, partner max 10 µM) | 0.0117 | -0.0306 | 0.0158 | -0.0329 | -0.0441 | -0.073 | -0.0429 | -0.0418 | -0.0794 | 0.0441 | -0.0075 | -0.0048 | -0.0522 | -0.0235 | -0.057 | -0.0303 | -0.0474 | 0.0141 | -0.0844 | -0.0076
5 | Cc1c2c(nn1C)CSCc1cc(n(C)n1)CSc1cc(c3ccccc3c1)OCCCc1c(C(=O)O)n(C)c3c-2c(Cl)ccc13 [AZD5991] + CN(C)CCCOc1ccc(-c2ccc3ncc4c(c3c2)n(C2CCOCC2)c(=O)n4C)cn1 [AZD0156] (first compound max 1 µM, 7x7, partner max 1 µM) | -0.0227 | -0.0889 | 0.0453 | -0.0104 | -0.0091 | 0.0146 | 0.0241 | -0.0236 | -0.0032 | -0.0354 | -0.0303 | -0.0055 | 0.0237 | 0.0051 | 0.0003 | 0.0049 | 0.0319 | 0.0164 | -0.0314 | 0.0068
6 | CN(CCO)CC[C@H](CSc1ccccc1)Nc1ccc(S(=O)(=O)NC(=O)c2ccc(N3CCC([C@@H](O)c4ccccc4-c4ccc(Cl)cc4)CC3)cc2)cc1S(=O)(=O)C(F)(F)F [AZD4320] + CN(C)CCCOc1ccc(-c2ccc3ncc4c(c3c2)n(C2CCOCC2)c(=O)n4C)cn1 [AZD0156] (first compound max 1 µM, 7x7, partner max 1 µM) | -0.0312 | -0.0759 | 0.0352 | -0.0476 | -0.0449 | -0.0284 | 0.0079 | -0.0982 | -0.0077 | -0.027 | -0.0331 | -0.0296 | -0.0121 | 0.0527 | -0.01 | 0.0035 | -0.0173 | -0.0107 | -0.0231 | -0.068
7 | C[C@@H]1COCCN1c1cc(C2([S@](C)(=N)=O)CC2)nc(-c2ccnc3[nH]ccc23)n1 [AZD6738] + O=C(c1cc(Cc2n[nH]c(=O)c3ccccc23)ccc1F)N1CCN(C(=O)C2CC2)CC1 [Olaparib] (first compound max 10 µM, 7x7, partner max 10 µM) | -0.0384 | -0.03 | 0.0412 | 0.0629 | -0.0764 | 0.0008 | -0.0078 | 0.0311 | -0.0081 | 0.0229 | 0.0223 | 0.0031 | -0.0303 | 0.0174 | 0.0443 | 0.0291 | 0.0414 | 0.0206 | -0.0087 | -0.0163
8 | CCN(CCO)CCCOc1ccc2c(Nc3cc(CC(=O)Nc4cccc(F)c4)[nH]n3)ncnc2c1 [AZD2811] + C=CCn1c(=O)c2cnc(Nc3ccc(N4CCN(C)CC4)cc3)nc2n1-c1cccc(C(C)(C)O)n1 [AZD1775] (first compound max 1 µM, partner max 1 µM) | 0.0006 | -0.0132 | -0.0098 | -0.0202 | 0.0236 | -0.0116 | -0.0443 | -0.0252 | -0.0665 | 0.02 | 0.0108 | -0.0278 | 0.0618 | -0.0026 | -0.0014 | -0.0408 | 0.0123 | 0.0203 | -0.0196 | -0.0325
9 | COc1nnc2ccc(N3CCC(c4ccc(OCCN5CCN(C)C(=O)[C@H]5C)cc4)CC3)nn12 [AZD5153] + CCN(CCO)CCCOc1ccc2c(Nc3cc(CC(=O)Nc4cccc(F)c4)[nH]n3)ncnc2c1 [AZD2811] (first compound max 1 µM, 7x7, partner max 1 µM) | -0.0523 | -0.0549 | 0.0233 | -0.0313 | -0.0087 | -0.0241 | 0.0224 | 0.0014 | -0.0025 | -0.115 | -0.0065 | -0.0711 | -0.08 | -0.0086 | -0.0288 | 0.0139 | -0.0238 | -0.0335 | -0.0951 | -0.0181
10 | CN(C)CCCOc1ccc(-c2ccc3ncc4c(c3c2)n(C2CCOCC2)c(=O)n4C)cn1 [AZD0156] + O=C(c1cc(Cc2n[nH]c(=O)c3ccccc23)ccc1F)N1CCN(C(=O)C2CC2)CC1 [Olaparib] (first compound max 3 µM, partner max 3 µM) | 0.0228 | -0.017 | 0.0055 | 0.204 | -0.0266 | -0.0462 | 0.0719 | -0.046 | 0.0383 | -0.0273 | -0.0959 | 0.0023 | 0.109 | 0.231 | 0.0824 | 0.0281 | 0.063 | -0.0318 | 0.156 | -0.0013
11 | CN(CCO)CC[C@H](CSc1ccccc1)Nc1ccc(S(=O)(=O)NC(=O)c2ccc(N3CCC([C@@H](O)c4ccccc4-c4ccc(Cl)cc4)CC3)cc2)cc1S(=O)(=O)C(F)(F)F [AZD4320] + C=CCn1c(=O)c2cnc(Nc3ccc(N4CCN(C)CC4)cc3)nc2n1-c1cccc(C(C)(C)O)n1 [AZD1775] (first compound max 1 µM, partner max 1 µM) | -0.0093 | -0.038 | 0.11 | -0.0193 | 0.047 | -0.0308 | 0.0256 | 0.0529 | -0.0107 | -0.0299 | -0.0292 | 0.0666 | -0.0143 | 0.0581 | 0.0609 | 0.0693 | 0.0198 | 0.0035 | -0.0387 | -0.0078
12 | COc1nnc2ccc(N3CCC(c4ccc(OCCN5CCN(C)C(=O)[C@H]5C)cc4)CC3)nn12 [AZD5153] + Cc1c2c(nn1C)CSCc1cc(n(C)n1)CSc1cc(c3ccccc3c1)OCCCc1c(C(=O)O)n(C)c3c-2c(Cl)ccc13 [AZD5991] (first compound max 1 µM, 7x7, partner max 1 µM) | -0.0711 | -0.061 | 0.052 | -0.0387 | 0.0437 | -0.021 | 0.0564 | -0.0592 | -0.044 | 0.0012 | -0.0164 | -0.058 | -0.0402 | 0.0165 | 0.0352 | 0.041 | 0.0415 | -0.0229 | -0.0364 | -0.0101
13 | CN(C)CCCOc1ccc(-c2ccc3ncc4c(c3c2)n(C2CCOCC2)c(=O)n4C)cn1 [AZD0156] + C=CCn1c(=O)c2cnc(Nc3ccc(N4CCN(C)CC4)cc3)nc2n1-c1cccc(C(C)(C)O)n1 [AZD1775] (first compound max 1 µM, partner max 1 µM) | 0.0402 | -0.0264 | 0.0408 | -0.0525 | -0.0736 | -0.0236 | -0.0266 | -0.0599 | -0.0274 | -0.0131 | -0.0492 | -0.0548 | 0.0551 | -0.0281 | 0.057 | -0.0205 | -0.0291 | -0.0183 | -0.0028 | -0.0433
